Numbers after ± are expanded uncertainties.
Conditions: 313.15 K; Liquid

SMILES | vapor or sublimation pressure [kPa]
CCCCCO [pentan-1-ol] | 0.898 ± 0.018
CCCCCCC [heptane] | 12.31 ± 0.055
CC(C)CC(C)(C)C [2,2,4-trimethylpentane] | 12.94 ± 0.057

From the NIST ThermoML archive (doi:10.1016/j.fluid.2015.07.049)
